Data on 3 molecules can be found in BindingDB's records for doi:10.1016/j.bmcl.2006.12.028 (Sapienza University of Rome, 2007).

pIC50: −log10 of the molar value.

The target in one test is Histone deacetylase (Zea mays, UniProt Q9ZTP8). Kind of test: Inhibition of maize HD1-B (mean).
A further test deals with Histone deacetylase 1 (Mus musculus, UniProt O09106). Kind of test: Inhibition of mouse HDAC1 (mean).
A further test has as its target T1, Histone deacetylase 2b (Zea mays, UniProt Q94F81).
T1 sequence (Q94F81 whole entry): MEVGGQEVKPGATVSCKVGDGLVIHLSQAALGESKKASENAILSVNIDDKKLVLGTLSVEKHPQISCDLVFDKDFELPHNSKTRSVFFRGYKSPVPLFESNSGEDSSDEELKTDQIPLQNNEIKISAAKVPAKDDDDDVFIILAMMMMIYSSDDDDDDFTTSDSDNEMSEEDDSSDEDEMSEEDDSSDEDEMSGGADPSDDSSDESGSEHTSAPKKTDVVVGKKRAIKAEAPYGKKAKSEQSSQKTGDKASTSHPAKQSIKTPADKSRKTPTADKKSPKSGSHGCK
The experiment in a line: Inhibition of maize HD2 (mean).

For test [1], the target named is Histone deacetylase HD1-A (Zea mays). Kind of test: Inhibition of maize HD1-A (mean).

Sequence of Histone deacetylase 1 (O09106 whole entry): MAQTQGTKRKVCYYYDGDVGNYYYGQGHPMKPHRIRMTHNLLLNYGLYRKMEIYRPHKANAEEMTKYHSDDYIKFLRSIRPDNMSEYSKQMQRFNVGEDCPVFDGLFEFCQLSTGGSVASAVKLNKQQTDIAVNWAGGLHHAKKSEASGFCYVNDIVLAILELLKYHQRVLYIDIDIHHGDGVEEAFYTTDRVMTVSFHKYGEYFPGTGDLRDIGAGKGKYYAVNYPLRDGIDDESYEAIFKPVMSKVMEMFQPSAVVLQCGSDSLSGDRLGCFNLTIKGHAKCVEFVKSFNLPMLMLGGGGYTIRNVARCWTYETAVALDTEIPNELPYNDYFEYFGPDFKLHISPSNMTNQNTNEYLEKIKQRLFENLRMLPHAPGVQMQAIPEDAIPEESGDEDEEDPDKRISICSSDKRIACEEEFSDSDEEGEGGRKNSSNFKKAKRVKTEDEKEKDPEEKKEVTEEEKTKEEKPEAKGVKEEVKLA
Sequence of Histone deacetylase (Q9ZTP8 whole entry): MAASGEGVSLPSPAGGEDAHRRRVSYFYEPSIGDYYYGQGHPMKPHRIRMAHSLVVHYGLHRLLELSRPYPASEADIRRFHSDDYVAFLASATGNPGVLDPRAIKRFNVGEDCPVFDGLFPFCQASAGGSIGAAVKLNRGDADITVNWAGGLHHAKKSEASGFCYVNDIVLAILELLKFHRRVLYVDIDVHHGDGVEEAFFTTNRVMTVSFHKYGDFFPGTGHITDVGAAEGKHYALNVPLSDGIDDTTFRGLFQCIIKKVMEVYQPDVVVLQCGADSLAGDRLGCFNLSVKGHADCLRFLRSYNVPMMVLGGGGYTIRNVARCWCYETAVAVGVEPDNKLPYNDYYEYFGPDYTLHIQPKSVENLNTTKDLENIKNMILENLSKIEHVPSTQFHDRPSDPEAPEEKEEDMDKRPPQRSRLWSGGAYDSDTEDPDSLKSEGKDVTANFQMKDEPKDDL

As to `O=C(CCCCSc1nc(-c2cccc(Cl)c2)cc(=O)[nH]1)NO`, the negative-log IC50 (pIC50) was 7.95 at Histone deacetylase, 7.44 on Histone deacetylase 1 and 7.77 against Histone deacetylase 2b.

On to `O=C(CCCCSc1nc(-c2ccc(Cl)cc2)cc(=O)[nH]1)NO`, for which the negative-log IC50 (pIC50) against Histone deacetylase was 7.95; on Histone deacetylase 1, 7.29; at Histone deacetylase 2b, 7.77; in test [1] it was 8.55.

`O=C(CCCCCCC(=O)Nc1ccccc1)NO` [Zolinza] had a negative logarithm of the IC50 (pIC50) on Histone deacetylase 2b of 7.31.
